According to ChEMBL document CHEMBL1201862, “PubChem BioAssay data set” (2004):
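Assay format: 96-well plates, 48-hour exposure. Abbreviation: GI50, concentration required for 50% inhibition of growth.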 Active and inactive are the calls of the source. Rule as the data show it: active = GI50 up to about 1.1 µM and inactive = higher.

Key:
Assay in all cases: NCI-60 cell line screen, 48 h
786-0 = test system: 786-0
A549 = test system: A549
CAKI-1 = test system: CAKI-1
HCT-116 = test system: HCT-116
HOP-62 = test system: HOP-62
KM12 = test system: KM12
MDA-MB-231 = test system: MDA-MB-231
MDA-MB-435 = test system: MDA-MB-435
MOLT-4 = test system: MOLT-4
Malme-3M = test system: Malme-3M
NCI-H522 = test system: NCI-H522
OVCAR-8 = test system: OVCAR-8
RPMI-8226 = test system: RPMI-8226
SF-268 = test system: SF-268
SF-539 = test system: SF-539
SN12C = test system: SN12C
SNB-19 = test system: SNB-19
UACC-62 = test system: UACC-62
UO-31 = test system: UO-31
MDA-N = test system: MDA-N

Measured: GI50

CN(C(=O)c1ccncc1)c1ccccc1
inactive: 786-0 > 100 µM | A549 > 100 µM | CAKI-1 > 100 µM | HCT-116 > 100 µM | HOP-62 > 100 µM | KM12 > 100 µM | MDA-MB-231 > 100 µM | MDA-MB-435 > 100 µM | MOLT-4 > 100 µM | Malme-3M > 100 µM | NCI-H522 > 100 µM | OVCAR-8 > 100 µM | RPMI-8226 > 100 µM | SF-268 > 100 µM | SF-539 > 100 µM | SN12C > 100 µM | SNB-19 > 100 µM | UACC-62 > 100 µM | UO-31 > 100 µM

O=C(Nc1ccccc1F)c1cc2ccc(O)cc2o/c1=N\c1cccc(C(F)(F)F)c1
inactive: 786-0 4.57 µM | A549 3.18 µM | CAKI-1 3.79 µM | HCT-116 2.85 µM | HOP-62 7.91 µM | KM12 3.71 µM | MDA-MB-435 3.51 µM | MDA-N 3.73 µM | MOLT-4 2.94 µM | Malme-3M 2.69 µM | NCI-H522 2 µM | OVCAR-8 2.18 µM | RPMI-8226 2.05 µM | SF-268 2.82 µM | SF-539 3.9 µM | SNB-19 5.87 µM | UACC-62 3.81 µM | UO-31 3.85 µM

CCO/C=N/NC(=O)CSc1nc2ccc(I)cc2c(=O)n1Cc1ccccc1
inactive: 786-0 56 µM | A549 > 100 µM | CAKI-1 > 100 µM | HCT-116 28.8 µM | HOP-62 37.4 µM | KM12 46.9 µM | MDA-MB-231 38 µM | MDA-MB-435 38.7 µM | MDA-N 37.8 µM | MOLT-4 28.5 µM | NCI-H522 3.04 µM | OVCAR-8 87.5 µM | RPMI-8226 49.3 µM | SF-268 44.3 µM | SF-539 53.8 µM | SN12C 84.5 µM | SNB-19 44.2 µM | UACC-62 43.9 µM | UO-31 > 100 µM

Fc1cc(-c2ncc(Cl)cc2Cl)c2cccccc1-2
inactive: 786-0 > 100 µM | A549 > 100 µM | CAKI-1 > 100 µM | HCT-116 > 100 µM | HOP-62 > 100 µM | KM12 > 100 µM | MDA-MB-231 > 100 µM | MDA-N > 100 µM | Malme-3M > 100 µM | NCI-H522 > 100 µM | OVCAR-8 > 100 µM | SF-268 > 100 µM | SF-539 > 100 µM | SNB-19 > 100 µM | UACC-62 > 100 µM | UO-31 > 100 µM

CC1(C)C2CCC1(C)[C@H](n1c(=O)n([C@@H]3CC4CCC3(C)C4(C)C)c(=O)n([C@@H]3CC4CCC3(C)C4(C)C)c1=O)C2
inactive: 786-0 28 µM | A549 31.8 µM | CAKI-1 66.7 µM | HCT-116 36.7 µM | HOP-62 44.4 µM | KM12 58.1 µM | MDA-MB-231 45.5 µM | MDA-MB-435 76.7 µM | MDA-N 68.4 µM | MOLT-4 63.4 µM | NCI-H522 37.4 µM | OVCAR-8 49.9 µM | RPMI-8226 57.9 µM | SF-268 41.6 µM | SF-539 17.8 µM | UO-31 38.7 µM

Cc1cc(N(CCC#N)CCC#N)ccc1C(/N=N\c1ccc(C(=O)O)cc1)=N\NC(=O)c1cc(Cl)ccc1O
inactive: 786-0 19.3 µM | A549 42.2 µM | CAKI-1 46.6 µM | HCT-116 36.1 µM | HOP-62 27 µM | KM12 28.8 µM | MDA-MB-231 26.6 µM | MDA-MB-435 > 100 µM | MOLT-4 > 100 µM | Malme-3M 56.6 µM | NCI-H522 17.1 µM | OVCAR-8 25.3 µM | RPMI-8226 > 100 µM | SF-268 19.2 µM | SF-539 > 10 µM | SN12C > 100 µM | SNB-19 23.6 µM | UACC-62 31.1 µM | UO-31 22.1 µM

O=P1(Oc2ccccc2)NCc2ncccc2O1 (stereo not given)
inactive: 786-0 > 100 µM | A549 > 100 µM | CAKI-1 > 100 µM | HCT-116 > 100 µM | HOP-62 > 100 µM | KM12 > 100 µM | MDA-MB-231 > 100 µM | MDA-MB-435 > 100 µM | MDA-N > 100 µM | MOLT-4 > 100 µM | OVCAR-8 > 100 µM | RPMI-8226 > 100 µM | SF-539 > 100 µM | SN12C > 100 µM | SNB-19 > 100 µM | UACC-62 > 100 µM | UO-31 > 100 µM

COc1ccc(C)cc1NC(=S)C#N
inactive: 786-0 > 100 µM | A549 > 100 µM | CAKI-1 > 100 µM | HCT-116 > 100 µM | HOP-62 29.6 µM | KM12 36.2 µM | MDA-MB-231 > 100 µM | MDA-MB-435 > 100 µM | MDA-N > 100 µM | OVCAR-8 27.9 µM | RPMI-8226 74.8 µM | SF-268 27.5 µM | SF-539 33.1 µM | SN12C > 100 µM | SNB-19 28.9 µM | UACC-62 34.4 µM

CCCCCCCCOC(=O)C12Oc3ccc(-c4ccc5c(c4O)C(=O)C4=C(O)CC(C)C(O)C4(C(=O)OCCCCCCCC)O5)c(O)c3C(=O)C1=C(O)CC(C)C2O (stereo not given)
inactive: 786-0 19.1 µM | A549 4.79 µM | CAKI-1 25.2 µM | HCT-116 7.11 µM | KM12 10.8 µM | MDA-MB-231 23.8 µM | MDA-MB-435 9.86 µM | MDA-N 18 µM | MOLT-4 16.3 µM | Malme-3M 32.4 µM | NCI-H522 8.36 µM | OVCAR-8 9.46 µM | SF-268 12.2 µM | SF-539 4.21 µM | SN12C 27.7 µM | SNB-19 8.85 µM | UACC-62 15.8 µM | UO-31 24.7 µM

CC1=NN(c2cccc(Cl)c2)C2(C1=Cc1ccc(N(C)C)cc1)C(Cl)C(=O)N2c1nc2ccccc2s1 (stereo not given)
inactive: 786-0 43.1 µM | CAKI-1 72.9 µM | HCT-116 60 µM | HOP-62 17.8 µM | KM12 3.95 µM | MDA-MB-231 46.8 µM | MDA-MB-435 6.18 µM | MDA-N 63.7 µM | MOLT-4 74 µM | NCI-H522 19.1 µM | OVCAR-8 73.3 µM | RPMI-8226 41 µM | SF-268 20.3 µM | SF-539 49.1 µM | UO-31 > 100 µM

O=C(Nc1cc2c(=O)[nH]c3ccccc3c2oc1=O)c1cnccn1
inactive: 786-0 > 100 µM | A549 > 100 µM | CAKI-1 > 100 µM | HCT-116 > 100 µM | KM12 > 100 µM | MDA-MB-231 > 100 µM | MDA-MB-435 > 100 µM | MDA-N > 100 µM | MOLT-4 > 100 µM | Malme-3M > 100 µM | NCI-H522 > 100 µM | OVCAR-8 > 100 µM | SF-539 > 100 µM | SN12C > 100 µM | SNB-19 > 100 µM | UACC-62 > 100 µM | UO-31 80.9 µM
